Data on 15 compounds can be found in patent US20240238423A9, “TETRAHYDROISOQUINOLINE HETEROBIFUNCTIONAL BCL-XL DEGRADERS” (Treeline Biosciences, Inc., priority 2022, published 2024).

This assay concerns the target T1, Human BCL-XL protein (N-terminal HiBiT tagged BCL-XL in HT1080 cells) (Homo sapiens, UniProt Q07817).
T1 construct: expressed in transfected cells; host or cells: HT-1080 (ATCC CCL-121), stably transduced with lentivirus pLV-UBC-N-HiBiT-BCL-XL-PGK-puro and selected with puromycin
Nature of the assay: HiBiT based degradation assay. The class given is cell-based. The settings on record: HT1080 cells expressing HiBiT-BCL-XL, 24 h; for Ymin (24 h): BCL-XL degradation normalized with DMSO control; for DC50: BCL-XL degradation, read-out: EC50 (24 h). A digest of the protocol: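 This HiBiT degradation assay measured loss of BCL-XL in HT1080 cells that stably express an N-terminal HiBiT-BCL-XL fusion delivered by lentivirus. Cells were added to compound-spotted 384-well plates, and luminescence was read on a PHERAstar FSX reader. Signal was expressed relative to DMSO controls, curves were fitted by four-parameter logistic regression, and for hook-shaped curves the Ymin point served as the bottom plateau when calculating EC50.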

T1 sequence (Q07817 whole entry): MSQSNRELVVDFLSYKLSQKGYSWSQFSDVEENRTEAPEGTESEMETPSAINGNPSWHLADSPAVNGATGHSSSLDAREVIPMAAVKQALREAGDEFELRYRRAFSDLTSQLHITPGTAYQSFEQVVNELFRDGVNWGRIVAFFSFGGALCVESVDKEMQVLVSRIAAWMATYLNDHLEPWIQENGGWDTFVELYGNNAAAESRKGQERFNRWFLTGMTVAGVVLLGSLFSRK

Take `Cc1c(OCCCC2CCN(CC3CCN(c4cccc5c(C6CCC(=O)NC6=O)nn(C)c45)CC3)CC2)cccc1-c1ccc(N2CCc3cccc(C(=O)Nc4nc5ccccc5s4)c3C2)nc1C(=O)O` (stereo not drawn) [Compound 279, 6-[8-(1,3-benzothiazol-2-ylcarbamoyl)-3,4-dihydro-1H-isoquinolin-2-yl]-3-[3-[3-[1-[[1-[3-(2,6-dioxo-3-piperidyl)-1-methyl-indazol-7-yl]-4-piperidyl]methyl]-4-piperidyl]propoxy]-2-methyl-phenyl]pyridine-2-carboxylic acid]: the “Ymin (24 h)” value is recorded as “A (Ymin < 50%)” and the DC50 was less than 100 nM.

In the case of `Cc1c(OCCCc2ccc(CC(=O)Nc3ccc4c(C5CCC(=O)NC5=O)nn(C)c4c3)nc2)cccc1-c1ccc(N2CCc3cccc(C(=O)Nc4nc5ccccc5s4)c3C2)nc1C(=O)O` (stereo not drawn) [Compound 280, 6-[8-(1,3-benzothiazol-2-ylcarbamoyl)-3,4-dihydro-1H-isoquinolin-2-yl]-3-[3-[3-[6-[2-[[3-(2,6-dioxo-3-piperidyl)-1-methyl-indazol-6-yl]amino]-2-oxo-ethyl]-3-pyridyl]propoxy]-2-methyl-phenyl]pyridine-2-carboxylic acid], the “Ymin (24 h)” value is “B (50% ≤ Ymin < 70%)” and the DC50 is less than 100 nM.

In the case of `Cc1c(OCCCCC2CCN(CC3CCN(c4cccc5c(C6CCC(=O)NC6=O)nn(C)c45)CC3)CC2)cccc1-c1ccc(N2CCc3cccc(C(=O)Nc4nc5ccccc5s4)c3C2)nc1C(=O)O` (stereo not drawn) [Compound 285, 6-[8-(1,3-benzothiazol-2-ylcarbamoyl)-3,4-dihydro-1H-isoquinolin-2-yl]-3-[3-[4-[1-[[1-[3-(2,6-dioxo-3-piperidyl)-1-methyl-indazol-7-yl]-4-piperidyl]methyl]-4-piperidyl]butoxy]-2-methyl-phenyl]pyridine-2-carboxylic acid], the “Ymin (24 h)” value is recorded as “A (Ymin < 50%)” and the DC50 is less than 100 nM.

Turning to `Cc1c(OCCCC2CC3(C2)CN(CC(=O)Nc2ccc4c(C5CCC(=O)NC5=O)nn(C)c4c2)C3)cccc1-c1ccc(N2CCc3cccc(C(=O)Nc4nc5ccccc5s4)c3C2)nc1C(=O)O` (stereo not drawn) [Compound 286, 6-[8-(1,3-benzothiazol-2-ylcarbamoyl)-3,4-dihydro-1H-isoquinolin-2-yl]-3-[3-[3-[2-[2-[[3-(2,6-dioxo-3-piperidyl)-1-methyl-indazol-6-yl]amino]-2-oxo-ethyl]-2-azaspiro[3.3]heptan-6-yl]propoxy]-2-methyl-phenyl]pyridine-2-carboxylic acid], the “Ymin (24 h)” value was “A (Ymin < 50%)” and the DC50 was less than 100 nM.

For the compound `Cc1c(OCCC2CCN(CCCC3CCN(c4ccc5c(C6CCC(=O)NC6=O)nn(C)c5c4)CC3)CC2)cccc1-c1ccc(N2CCc3cccc(C(=O)Nc4nc5ccccc5s4)c3C2)nc1C(=O)O` (stereo not drawn) [Compound 287, 6-[8-(1,3-benzothiazol-2-ylcarbamoyl)-3,4-dihydro-1H-isoquinolin-2-yl]-3-[3-[2-[1-[3-[1-[3-(2,6-dioxo-3-piperidyl)-1-methyl-indazol-6-yl]-4-piperidyl]propyl]-4-piperidyl]ethoxy]-2-methyl-phenyl]pyridine-2-carboxylic acid], the “Ymin (24 h)” value is listed as “A (Ymin < 50%)” and the DC50 is less than 100 nM.

Take `Cc1c(OCCC2CCN(CCCC3CCN(c4cccc5c(C6CCC(=O)NC6=O)nn(C)c45)CC3)CC2)cccc1-c1ccc(N2CCc3cccc(C(=O)Nc4nc5ccccc5s4)c3C2)nc1C(=O)O` (stereo not drawn) [Compound 288, 6-[8-(1,3-benzothiazol-2-ylcarbamoyl)-3,4-dihydro-1H-isoquinolin-2-yl]-3-[3-[2-[1-[3-[1-[3-(2,6-dioxo-3-piperidyl)-1-methyl-indazol-7-yl]-4-piperidyl]propyl]-4-piperidyl]ethoxy]-2-methyl-phenyl]pyridine-2-carboxylic acid]: the “Ymin (24 h)” value was “A (Ymin < 50%)” and the DC50 is less than 100 nM.

On to `Cc1c(CCCOC2CCN(CC(=O)Nc3ccc4c(C5CCC(=O)NC5=O)nn(C)c4c3)CC2)cccc1-c1ccc(N2CCc3cccc(C(=O)Nc4nc5ccccc5s4)c3C2)nc1C(=O)O` (stereo not drawn) [Compound 290, 6-[8-(1,3-benzothiazol-2-ylcarbamoyl)-3,4-dihydro-1H-isoquinolin-2-yl]-3-[3-[3-[[1-[2-[[3-(2,6-dioxo-3-piperidyl)-1-methyl-indazol-6-yl]amino]-2-oxo-ethyl]-4-piperidyl]oxy]propyl]-2-methyl-phenyl]pyridine-2-carboxylic acid], for which the “Ymin (24 h)” value is recorded as “A (Ymin < 50%)” and the DC50 was less than 100 nM.

On to `Cc1cc(CCCOC2CCN(CC(=O)Nc3ccc4c(C5CCC(=O)NC5=O)nn(C)c4c3)CC2)ccc1-c1ccc(N2CCc3cccc(C(=O)Nc4nc5ccccc5s4)c3C2)nc1C(=O)O` (stereo not drawn) [Compound 291, 6-[8-(1,3-benzothiazol-2-ylcarbamoyl)-3,4-dihydro-1H-isoquinolin-2-yl]-3-[4-[3-[[1-[2-[[3-(2,6-dioxo-3-piperidyl)-1-methyl-indazol-6-yl]amino]-2-oxo-ethyl]-4-piperidyl]oxy]propyl]-2-methyl-phenyl]pyridine-2-carboxylic acid], for which the “Ymin (24 h)” value is reported as “A (Ymin < 50%)” and the DC50 was less than 100 nM.

For the compound `Cc1c(CCCCC2CCN(CC(=O)Nc3ccc4c(C5CCC(=O)NC5=O)nn(C)c4c3)CC2)cccc1-c1ccc(N2CCc3cccc(C(=O)Nc4nc5ccccc5s4)c3C2)nc1C(=O)O` (stereo not drawn) [Compound 292, 6-[8-(1,3-benzothiazol-2-ylcarbamoyl)-3,4-dihydro-1H-isoquinolin-2-yl]-3-[3-[4-[1-[2-[[3-(2,6-dioxo-3-piperidyl)-1-methyl-indazol-6-yl]amino]-2-oxo-ethyl]-4-piperidyl]butyl]-2-methyl-phenyl]pyridine-2-carboxylic acid], the “Ymin (24 h)” value is recorded as “A (Ymin < 50%)” and the DC50 is less than 100 nM.

For `Cc1c(O[C@H]2CC[C@H](CCCCN3CCN(c4ccc5c(C6CCC(=O)NC6=O)nn(C)c5c4F)CC3)CC2)cccc1-c1ccc(N2CCc3cccc(C(=O)Nc4nc5ccccc5s4)c3C2)nc1C(=O)O` (stereo partly drawn) [Compound 293a, 6-(8-(benzo[d]thiazol-2-ylcarbamoyl)-3,4-dihydroisoquinolin-2(1H)-yl)-3-(3-(((1s,4r)-4-(4-(4-(3-(2,6-dioxopiperidin-3-yl)-7-fluoro-1-methyl-1H-indazol-6-yl)piperazin-1-yl)butyl)cyclohexyl)oxy)-2-methylphenyl)picolinic acid], the “Ymin (24 h)” value is recorded as “A (Ymin < 50%)” and the DC50 was less than 100 nM.

Take `Cc1cc(CCCCC2CCN(CC(=O)Nc3ccc4c(C5CCC(=O)NC5=O)nn(C)c4c3)CC2)ccc1-c1ccc(N2CCc3cccc(C(=O)Nc4nc5ccccc5s4)c3C2)nc1C(=O)O` (stereo not drawn) [Compound 294]: the “Ymin (24 h)” value is on record as “A (Ymin < 50%)” and the DC50 was less than 100 nM.

For the compound `Cc1c(OCCCC2CCN(CC(=O)Nc3cc4c(cc3F)c(C3CCC(=O)NC3=O)nn4C)CC2)cccc1-c1ccc(N2CCc3cccc(C(=O)Nc4nc5ccccc5s4)c3C2)nc1C(=O)O` (stereo not drawn) [Compound 295, 6-[8-(1,3-benzothiazol-2-ylcarbamoyl)-3,4-dihydro-1H-isoquinolin-2-yl]-3-[3-[3-[1-[2-[[3-(2,6-dioxo-3-piperidyl)-5-fluoro-1-methyl-indazol-6-yl]amino]-2-oxo-ethyl]-4-piperidyl]propoxy]-2-methyl-phenyl]pyridine-2-carboxylic acid], the “Ymin (24 h)” value is reported as “B (50% ≤ Ymin < 70%)” and the DC50 was in the range of 100 to 1000 nM.

For the compound `Cc1c(O[C@H]2CC[C@H](CCCCN3CCN(c4cc5c(cc4F)c(C4CCC(=O)NC4=O)nn5C)CC3)CC2)cccc1-c1ccc(N2CCc3cccc(C(=O)Nc4nc5ccccc5s4)c3C2)nc1C(=O)O` (stereo partly drawn) [Compound 296a, 6-(8-(benzo[d]thiazol-2-ylcarbamoyl)-3,4-dihydroisoquinolin-2(1H)-yl)-3-(3-(((1s,4r)-4-(4-(4-(3-(2,6-dioxopiperidin-3-yl)-5-fluoro-1-methyl-1H-indazol-6-yl)piperazin-1-yl)butyl)cyclohexyl)oxy)-2-methylphenyl)picolinic acid], the “Ymin (24 h)” value is “A (Ymin < 50%)” and the DC50 is less than 100 nM.

Consider `Cc1c(O[C@H]2CC[C@H](CCCCN3CCN(c4ccc5c(C6CCC(=O)NC6=O)nn(C)c5c4)C[C@H]3C)CC2)cccc1-c1ccc(N2CCc3cccc(C(=O)Nc4nc5ccccc5s4)c3C2)nc1C(=O)O` (stereo partly drawn) [Compound 297a, 6-(8-(benzo[d]thiazol-2-ylcarbamoyl)-3,4-dihydroisoquinolin-2(1H)-yl)-3-(3-(((1s,4r)-4-(4-((2R)-4-(3-(2,6-dioxopiperidin-3-yl)-1-methyl-1H-indazol-6-yl)-2-methylpiperazin-1-yl)butyl)cyclohexyl)oxy)-2-methylphenyl)picolinic acid], for which the “Ymin (24 h)” value is “A (Ymin < 50%)” and the DC50 was less than 100 nM.

As to `Cc1c(O[C@H]2CC[C@H](CCCCN3CCN(c4ccc5c(C6CCC(=O)NC6=O)nn(C)c5c4)C[C@@H]3C)CC2)cccc1-c1ccc(N2CCc3cccc(C(=O)Nc4nc5ccccc5s4)c3C2)nc1C(=O)O` (stereo partly drawn) [Compound 297b, 6-(8-(benzo[d]thiazol-2-ylcarbamoyl)-3,4-dihydroisoquinolin-2(1H)-yl)-3-(3-(((1r,4r)-4-(4-((2S)-4-(3-(2,6-dioxopiperidin-3-yl)-1-methyl-1H-indazol-6-yl)-2-methylpiperazin-1-yl)butyl)cyclohexyl)oxy)-2-methylphenyl)picolinic acid], the “Ymin (24 h)” value is recorded as “A (Ymin < 50%)” and the DC50 was less than 100 nM.
